Reference: PubChem BioAssay (NCI)
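Compound exposure: 48 hours, 5 concentrations, 96-well plates. GI50: concentration for 50% inhibition of growth. TGI denotes the concentration required for complete inhibition of growth.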

Tests used:
Assay in all cases: inhibition of tumour cell growth, NCI panel, 48 h
[1] = test system: HCC-2998 colon
[2] = test system: UACC-62 melanoma
[3] = test system: NCI/ADR-RES ovarian
[4] = test system: OVCAR-4 ovarian
[5] = test system: 786-0 renal
[6] = test system: PC-3 prostate
[7] = test system: TK-10 renal
[8] = test system: T-47D breast
[9] = test system: BT-549 breast
[10] = test system: NCI-H522 lung
[11] = test system: SF-268 CNS
[12] = test system: SK-OV-3 ovarian
[13] = test system: SN12C renal
[14] = test system: RXF 393 renal
[15] = test system: OVCAR-8 ovarian
[16] = test system: SF-295 CNS
[17] = test system: HOP-62 NSCLC
[18] = test system: A549 NSCLC
[19] = test system: HCT-116 colon
[20] = test system: K-562 leukemia
[21] = test system: NCI-H226 lung
[22] = test system: OVCAR-5 ovarian
[23] = test system: UACC-257 melanoma
[24] = test system: UO-31 renal
[25] = test system: SK-MEL-28 melanoma
[26] = test system: OVCAR-3 ovarian
[27] = test system: HL-60(TB) leukemia
[28] = test system: CCRF-CEM leukemia
[29] = test system: NCI-H23 lung
[30] = test system: SW-620 colon

With `O=C1CCC(N2Cc3cc(CC(=O)Nc4ccc(N5CCCCC5)cc4)ccc3C2=O)C(=O)N1` (configuration not stated) the GI50 [1] was 0.0174 µM, the TGI [1] was > 100 µM and the GI50 [2] was 36.3 µM. The TGI [2] was > 100 µM, the GI50 [3] was 4.34 µM and the TGI [3] was > 100 µM. For the same molecule, the GI50 [4] was 23.4 µM, the TGI [4] was > 100 µM and the GI50 [5] was 1.43 µM. The TGI [5] was > 100 µM, the GI50 [6] was < 0.0108 µM and the TGI [6] was > 100 µM. For the same molecule, the GI50 [7] was 1.58 µM, the TGI [7] was > 100 µM and the GI50 [8] was < 0.01 µM. For the same molecule, the TGI [8] was > 100 µM, the GI50 [9] was < 0.01 µM and the TGI [9] was 0.927 µM. The GI50 [10] was > 72.9 µM, the TGI [10] was > 100 µM and the GI50 [11] was 40.7 µM. For the same molecule, the TGI [11] was > 100 µM, the GI50 [12] was 12.9 µM and the TGI [12] was > 100 µM. The GI50 [13] was 0.632 µM, the TGI [13] was > 90.8 µM and the GI50 [14] was 9.66 µM. For the same molecule, the TGI [14] was > 100 µM, the GI50 [15] was < 0.01 µM and the TGI [15] was > 100 µM. The GI50 [16] was > 96.3 µM, the TGI [16] was > 100 µM and the GI50 [17] was < 0.01 µM. For the same molecule, the GI50 [18] was 24.2 µM, the TGI [18] was > 100 µM and the GI50 [19] was > 100 µM. The TGI [19] was > 100 µM, the GI50 [20] was > 56.1 µM and the TGI [20] was > 100 µM. For the same molecule, the GI50 [21] was 0.0398 µM, the TGI [21] was 23.3 µM and the GI50 [22] was 0.24 µM. The TGI [22] was > 100 µM, the GI50 [23] was > 100 µM and the TGI [23] was > 100 µM. For the same molecule, the GI50 [24] was 0.0782 µM, the TGI [24] was > 100 µM and the GI50 [25] was > 60.4 µM. For the same molecule, the TGI [25] was > 100 µM, the GI50 [26] was 23.2 µM and the TGI [26] was > 100 µM. For the same molecule, the GI50 [27] was < 0.01 µM, the GI50 [28] was < 0.01 µM and the GI50 [29] was > 100 µM. The TGI [29] was > 100 µM, the GI50 [30] was < 0.0144 µM and the TGI [30] was > 100 µM.
